This note sets out measurements from patent publication US20250270172A1, “Pyrimidine Derivatives As Modulators of the 5-HT2A Serotonin Receptor Useful For The Treatment of Disorders Related Thereto” (Arena Pharmaceuticals, Inc., priority 2020, published 2025).

The structures appear in SMILES notation.

A word on the Ki: it is a measure of affinity in units of concentration, obtained from inhibition or displacement.

5-HT2A, sequence (P28223 whole entry): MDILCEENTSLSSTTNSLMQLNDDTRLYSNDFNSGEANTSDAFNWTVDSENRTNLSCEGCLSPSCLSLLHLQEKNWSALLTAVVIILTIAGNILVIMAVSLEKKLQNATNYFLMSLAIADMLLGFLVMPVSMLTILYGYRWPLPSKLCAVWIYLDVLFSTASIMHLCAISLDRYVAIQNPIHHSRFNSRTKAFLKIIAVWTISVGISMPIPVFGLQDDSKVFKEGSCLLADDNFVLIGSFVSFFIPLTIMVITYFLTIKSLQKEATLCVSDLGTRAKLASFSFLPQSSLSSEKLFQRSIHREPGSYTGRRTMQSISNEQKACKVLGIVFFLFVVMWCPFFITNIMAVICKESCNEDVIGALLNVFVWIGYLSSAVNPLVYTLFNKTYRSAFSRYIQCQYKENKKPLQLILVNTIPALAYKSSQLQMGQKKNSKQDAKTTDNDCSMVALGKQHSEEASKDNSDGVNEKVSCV

This assay concerns the target 5-HT2A (Homo sapiens (Human), UniProt P28223). Nature of the assay: Radioligand binding assay, [^3H]5-HT competition, 5-HT2A. The note with it: [^3H]5-HT radioligand, membranes of HEK293 cells expressing recombinant 5-HT2A; Ki from IC50 by Cheng-Prusoff; read-out: 5-HT2A serotonin binding Ki value.
Regarding `Cc1ncnc(C)c1-c1cc(NC(=O)Cc2cccn2C)ccc1OCCN1CCCC1` [Compound 249, N-(3-(4,6-dimethylpyrimidin-5-yl)-4-(2-(pyrrolidin-1-yl)ethoxy)phenyl)-2-(1-methyl-1H-pyrrol-2-yl)acetamide], the Ki is 78.3 nM.

As for `Cc1ncnc(C)c1-c1cc(NC(=O)Cc2ccccc2)ccc1OCCN1CCCC1` [Compound 251, N-(3-(4,6-dimethylpyrimidin-5-yl)-4-(2-(pyrrolidin-1-yl)ethoxy)phenyl)-2-phenylacetamide], the Ki is 2.05 nM.

Regarding `Cc1ncnc(C)c1-c1cc(NC(=O)C(C)c2ccccc2)ccc1OCCN1CCCC1` (centres unmarked) [Compound 252, N-(3-(4,6-dimethylpyrimidin-5-yl)-4-(2-(pyrrolidin-1-yl)ethoxy)phenyl)-2-phenylpropanamide], the Ki turned out to be 9.53 nM.

Consider `Cc1ncnc(C)c1-c1cc(NC(=O)C2(c3ccccc3)CC2)ccc1OCCN1CCCC1` [Compound 253, N-(3-(4,6-dimethylpyrimidin-5-yl)-4-(2-(pyrrolidin-1-yl)ethoxy)phenyl)-1-phenylcyclopropane-1-carboxamide], for which the Ki amounted to 6.34 nM.

As for `Cc1ncnc(C)c1-c1cc(NC(=O)Cc2ccc(F)cc2)ccc1OCCN1CCCC1` [Compound 254, N-(3-(4,6-dimethylpyrimidin-5-yl)-4-(2-(pyrrolidin-1-yl)ethoxy)phenyl)-2-(4-fluorophenyl)acetamide], the Ki came to 1.3 nM.

On to `Cc1ncnc(C)c1-c1cc(NC(=O)CCc2ccccc2)ccc1OCCN1CCCC1` [Compound 255, N-(3-(4,6-dimethylpyrimidin-5-yl)-4-(2-(pyrrolidin-1-yl)ethoxy)phenyl)-3-phenylpropanamide], for which the Ki was found to be 1.72 nM.

On to `Cc1ncnc(C)c1-c1cc(NC(=O)CCc2cocn2)ccc1OCCN1CCCC1` [Compound 258, N-[3-(4,6-dimethylpyrimidin-5-yl)-4-(2-pyrrolidin-1-ylethoxy)phenyl]-3-oxazol-4-yl-propanamide], for which the Ki worked out at 10.8 nM.

As for `Cc1nc(CCC(=O)Nc2ccc(OCCN3CCCC3)c(-c3c(C)ncnc3C)c2)co1` [Compound 259, N-[3-(4,6-dimethylpyrimidin-5-yl)-4-(2-pyrrolidin-1-ylethoxy)phenyl]-3-(2-methyloxazol-4-yl)propanamide], the Ki came out at 19.6 nM.

Take `Cc1ncnc(C)c1-c1cc(NC(=O)Cc2cnco2)ccc1OCCN1CCCC1` [Compound 260, N-[3-(4,6-dimethylpyrimidin-5-yl)-4-(2-pyrrolidin-1-ylethoxy)phenyl]-2-oxazol-5-yl-acetamide]: the Ki worked out at 63.3 nM.

Take `Cc1nc(CC(=O)Nc2ccc(OCCN3CCCC3)c(-c3c(C)ncnc3C)c2)no1` [Compound 261, N-(3-(4,6-dimethylpyrimidin-5-yl)-4-(2-(pyrrolidin-1-yl)ethoxy)phenyl)-2-(5-methyl-1,2,4-oxadiazol-3-yl)acetamide]: the Ki is 91.7 nM.

Consider `Cc1ncnc(C)c1-c1cc(NC(=O)Cc2ccon2)ccc1OCCN1CCCC1` [Compound 262, N-(3-(4,6-dimethylpyrimidin-5-yl)-4-(2-(pyrrolidin-1-yl)ethoxy)phenyl)-2-(isoxazol-3-yl)acetamide], for which the Ki was found to be 35.7 nM.

As for `Cc1cc(CC(=O)Nc2ccc(OCCN3CCCC3)c(-c3c(C)ncnc3C)c2)on1` [Compound 264, N-(3-(4,6-dimethylpyrimidin-5-yl)-4-(2-(pyrrolidin-1-yl)ethoxy)phenyl)-2-(3-methylisoxazol-5-yl)acetamide], the Ki came out at 9.18 nM.

For `Cc1noc(CC(=O)Nc2ccc(OCCN3CCCC3)c(-c3c(C)ncnc3C)c2)n1` [Compound 265, N-(3-(4,6-dimethylpyrimidin-5-yl)-4-(2-(pyrrolidin-1-yl)ethoxy)phenyl)-2-(3-methyl-1,2,4-oxadiazol-5-yl)acetamide], the Ki turned out to be 18.2 nM.

As to `Cc1ncnc(C)c1-c1cc(NC(=O)Cc2cc(C)n(C)n2)ccc1OCCN1CCCC1` [Compound 267, 2-(1,5-dimethyl-1H-pyrazol-3-yl)-N-(3-(4,6-dimethylpyrimidin-5-yl)-4-(2-(pyrrolidin-1-yl)ethoxy)phenyl)acetamide], the Ki was found to be 692 nM.

On to `Cc1ncnc(C)c1-c1cc(NC(=O)Cc2ccn(C)n2)ccc1OCCN1CCCC1` [Compound 269, N-[3-(4,6-dimethylpyrimidin-5-yl)-4-(2-pyrrolidin-1-ylethoxy)phenyl]-2-(1-methylpyrazol-3-yl)acetamide], for which the Ki amounted to 559 nM.

In the case of `Cc1ncnc(C)c1-c1cc(NC(=O)CCc2ccn(C)n2)ccc1OCCN1CCCC1` [Compound 270, N-[3-(4,6-dimethylpyrimidin-5-yl)-4-(2-pyrrolidin-1-ylethoxy)phenyl]-3-(1-methylpyrazol-3-yl)propanamide], the Ki stood at 51.6 nM.

For the molecule `COc1cccc(CC(=O)Nc2ccc(OCCN3CCCC3)c(-c3c(C)ncnc3C)c2)c1` [Compound 274, N-(3-(4,6-dimethylpyrimidin-5-yl)-4-(2-(pyrrolidin-1-yl)ethoxy)phenyl)-2-(3-methoxyphenyl)acetamide], the Ki was 3.92 nM.

For the molecule `Cc1ncnc(C)c1-c1cc(NC(=O)Cc2cncc(F)c2)ccc1OCCN1CCCC1` [Compound 277, N-(3-(4,6-dimethylpyrimidin-5-yl)-4-(2-(pyrrolidin-1-yl)ethoxy)phenyl)-2-(5-fluoropyridin-3-yl)acetamide], the Ki was determined as 33.4 nM.

`Cc1ncnc(C)c1-c1cc(NC(=O)Cc2ccc(F)cn2)ccc1OCCN1CCCC1` [Compound 278, N-(3-(4,6-dimethylpyrimidin-5-yl)-4-(2-(pyrrolidin-1-yl)ethoxy)phenyl)-2-(5-fluoropyridin-2-yl)acetamide]: the Ki was determined as 32.6 nM.

For `Cc1ncnc(C)c1-c1cc(N(C)C(=O)C2CC2)ccc1OCCN1CCCC1` [Compound 279, N-[3-(4,6-dimethylpyrimidin-5-yl)-4-(2-pyrrolidin-1-ylethoxy)phenyl]-N-methyl-cyclopropanecarboxamide], the Ki was determined as 65800 nM.

With `Cc1ncnc(C)c1-c1cc(N(C)C(=O)c2ccnn2C)ccc1OCCN1CCCC1` [Compound 280, N-[3-(4,6-dimethylpyrimidin-5-yl)-4-(2-pyrrolidin-1-ylethoxy)phenyl]-N,2-dimethyl-pyrazole-3-carboxamide], the Ki came out at 65800 nM.

For the molecule `Cc1ncnc(C)c1-c1cc(NC(=O)CCF)ccc1OCCN1CCCC1` [Compound 281, N-[3-(4,6-dimethylpyrimidin-5-yl)-4-(2-pyrrolidin-1-ylethoxy)phenyl]-3-fluoro-propanamide], the Ki stood at 30.6 nM.

As for `Cc1ncnc(C)c1-c1cc(NC(=O)CCCF)ccc1OCCN1CCCC1` [Compound 282, N-[3-(4,6-dimethylpyrimidin-5-yl)-4-(2-pyrrolidin-1-ylethoxy)phenyl]-4-fluoro-butanamide], the Ki stood at 8.84 nM.

Take `Cc1ncnc(C)c1-c1cc(NC(=O)C2(O)CC2)ccc1OCCN1CCCC1` [Compound 283, N-[3-(4,6-dimethylpyrimidin-5-yl)-4-(2-pyrrolidin-1-ylethoxy)phenyl]-1-hydroxy-cyclopropanecarboxamide]: the Ki is 24 nM.

Regarding `COC(C)(C)C(=O)Nc1ccc(OCCN2CCCC2)c(-c2c(C)ncnc2C)c1` [Compound 284, N-[3-(4,6-dimethylpyrimidin-5-yl)-4-(2-pyrrolidin-1-ylethoxy)phenyl]-2-methoxy-2-methyl-propanamide], the Ki was 87.5 nM.

As to `CCOC1(C(=O)Nc2ccc(OCCN3CCCC3)c(-c3c(C)ncnc3C)c2)CC1` [Compound 285, N-[3-(4,6-dimethylpyrimidin-5-yl)-4-(2-pyrrolidin-1-ylethoxy)phenyl]-1-ethoxy-cyclopropanecarboxamide], the Ki was 33.4 nM.

`COC1(C(=O)Nc2ccc(OCCN3CCCC3)c(-c3c(C)ncnc3C)c2)CCC1` [Compound 286, N-[3-(4,6-dimethylpyrimidin-5-yl)-4-(2-pyrrolidin-1-ylethoxy)phenyl]-1-methoxy-cyclobutanecarboxamide]: the Ki stood at 10.1 nM.

`Cc1ncnc(C)c1-c1cc(NC(=O)CN2CCCC2)ccc1OCCN1CCCC1` [Compound 287, N-[3-(4,6-dimethylpyrimidin-5-yl)-4-(2-pyrrolidin-1-ylethoxy)phenyl]-2-pyrrolidin-1-yl-acetamide]: the Ki is 3250 nM.

In the case of `Cc1ncnc(C)c1-c1cc(NC(=O)CNC2CC2)ccc1OCCN1CCCC1` [Compound 288, 2-(Cyclopropylamino)-N-[3-(4,6-dimethylpyrimidin-5-yl)-4-(2-pyrrolidin-1-ylethoxy)phenyl]acetamide], the Ki was 81.2 nM.

`Cc1ncnc(C)c1-c1cc(NC(=O)CNC2CCCC2)ccc1OCCN1CCCC1` [Compound 289, 2-(cyclopentylamino)-N-(3-(4,6-dimethylpyrimidin-5-yl)-4-(2-(pyrrolidin-1-yl)ethoxy)phenyl)acetamide]: the inhibitory constant (Ki) came out at 123 nM.

Regarding `Cc1cnn(C)c1C(=O)Nc1ccc(OCCN2CCCC2)c(-c2c(C)ncnc2C)c1` [Compound 292, N-(3-(4,6-dimethylpyrimidin-5-yl)-4-(2-(pyrrolidin-1-yl)ethoxy)phenyl)-1,4-dimethyl-1H-pyrazole-5-carboxamide], the Ki was 17.6 nM.

As to `Cc1ncnc(C)c1-c1cc(NC(=O)Cc2nccs2)ccc1OCCN1CCCC1` [Compound 294, N-(3-(4,6-dimethylpyrimidin-5-yl)-4-(2-(pyrrolidin-1-yl)ethoxy)phenyl)-2-(thiazol-2-yl)acetamide], the Ki came out at 17.9 nM.

Regarding `Cc1ncnc(C)c1-c1cc(NC(=O)c2c(F)ccn2C)ccc1OCCN1CCCC1` [Compound 295, N-[3-(4,6-dimethylpyrimidin-5-yl)-4-(2-pyrrolidin-1-ylethoxy)phenyl]-3-fluoro-1-methyl-pyrrole-2-carboxamide], the Ki stood at 2.01 nM.

Take `Cc1ncnc(C)c1-c1cc(NC(=O)C2CC(F)(F)C2)ccc1OCCN1CCCC1` [Compound 296, N-(3-(4,6-dimethylpyrimidin-5-yl)-4-(2-(pyrrolidin-1-yl)ethoxy)phenyl)-3,3-difluorocyclobutane-1-carboxamide]: the Ki worked out at 4.49 nM.

`Cc1ncnc(C)c1-c1cc(NC(=O)c2cccc(F)c2)ccc1OCCN1CCCC1` [Compound 297, N-(3-(4,6-dimethylpyrimidin-5-yl)-4-(2-(pyrrolidin-1-yl)ethoxy)phenyl)-3-fluorobenzamide]: the Ki was determined as 2.71 nM.
